One experiment deals with phospholipase D1. Kind of experiment: PLD activity in HCT116 cells ([3H]phosphatidylbutanol, TLC). In kind it is cell-based, human. Particulars: compound 10 μM, cells without the compound = 100%. The method, then: To evaluate the inhibitory effect of the compounds according to the present invention on phospholipase D1 activity, experiments were conducted as follows.
For the analysis of PLD activity in cells, human colon cancer cell line (HCT116) was cultured in a 6-well plate at 37° C. for 24 hours, washed twice with phosphate-buffered saline (PBS), and then replaced with medium containing [^3H]myristate and cultured for 24 hours. After the culture, the cells were washed three times with PBS, treated with 1-butanol, and the drug was added to a final concentration of 10 μM. The cells were trypsinized and suspended, and the amount of [^3H]phosphatidylbutanol produced in the cell suspension was measured and evaluated for PLD activity using thin layer chromatography (TLC), and the results are shown in Table 1 below.
The Remaining activity % at 10 μM in Table 1 is calculated by setting the amount of [^3H]phosphatidylbutanol produced in cells without the compound as 100% and calculating the amount of [^3H]phosphatidylbutanol produced in cells treated with the compound as a percentage. Therefore, the lower the value of Remaining activity %, the higher the PLD inhibitory activity.
Regarding `O=C(CCc1c[nH]c2ccccc12)Nc1cccc(Br)c1` [Example 1-64, N-(3-bromophenyl)-3-(1H-indol-3-yl)propanamide], the “Remaining activity % at 10 μM” value is “not active”.

In the case of `O=C(Cc1c[nH]c2ccccc12)Nc1cc(C(F)(F)F)cc(C(F)(F)F)c1` [Example 1-32, N-(3,5-bis(trifluoromethyl)phenyl)-2-(1H-indol-3-yl)acetamide], the “Remaining activity % at 10 μM” value stood at 40.95%. The same measure, in the same setting: for `O=C(Nc1ccc(F)cc1)c1cc2cc(F)ccc2[nH]1` [Example 1-90, 5-fluoro-N-(4-fluorophenyl)-1H-indole-2-carboxamide] the value was 48.64%. With `COc1ccc(NC(=O)c2cc3cc(F)ccc3[nH]2)cc1OC` [Example 1-93, N-(3,4-dimethoxyphenyl)-5-fluoro-1H-indole-2-carboxamide], the “Remaining activity % at 10 μM” value turned out to be 58.09%. With `O=C(Cc1c[nH]c2ccccc12)NCc1ccc([N+](=O)[O-])cc1` [Example 1-46, 2-(1H-indol-3-yl)-N-(4-nitrobenzyl)acetamide], the “Remaining activity % at 10 μM” value stood at 57.41%. Turning to `O=C(CCc1c[nH]c2ccccc12)Nc1ccc(Cl)c([N+](=O)[O-])c1` [Example 1-68, N-(4-chloro-3-nitrophenyl)-3-(1H-indol-3-yl)propanamide], the “Remaining activity % at 10 μM” value is listed as “not active”. The same measure, in the same setting: under `Cc1cccc(CNC(=O)Cc2c[nH]c3ccccc23)c1` [Example 1-40, 2-(1H-indol-3-yl)-N-(3-methylbenzyl)acetamide] stands 95.87%; under `O=C(Nc1ccc(Br)cc1)c1c[nH]c2ccccc12` [Example 1-2, N-(4-bromophenyl)-1H-indole-3-carboxamide], 85.52%.

Consider `COc1ccc(CNC(=O)Cc2c[nH]c3ccccc23)cc1OC` [Example 1-45, N-(3,4-dimethoxybenzyl)-2-(1H-indol-3-yl)acetamide], for which the “Remaining activity % at 10 μM” value is 41.05%. On the same count and under the same terms, for `O=C(Cc1c[nH]c2ccccc12)Nc1cccc(Br)c1` [Example 1-16, N-(3-bromophenyl)-2-(1H-indol-3-yl)acetamide] the value was 97.25%. In the case of `O=C(Cc1c[nH]c2ccccc12)NNc1ccc(Br)cc1` [Example 1-55, N′-(4-bromophenyl)-2-(1H-indol-3-yl)acetohydrazide], the “Remaining activity % at 10 μM” value is recorded as 77.89%. The same measure, in the same setting: under `CCOC(=O)c1ccc(NC(=O)Cc2c[nH]c3ccccc23)cc1` [Example 1-29, ethyl 4-(2-(1H-indol-3-yl)acetamido)benzoate] stands 76.8%. Consider `O=C(Nc1cc(C(F)(F)F)cc(C(F)(F)F)c1)c1cc2cc(F)c(F)cc2[nH]1` [Example 1-113, N-(3,5-bis(trifluoromethyl)phenyl)-5,6-difluoro-1H-indole-2-carboxamide], for which the “Remaining activity % at 10 μM” value is on record as 42.48%. The same measure, in the same setting: for `O=C(Nc1ccccc1F)c1cc2cc(F)ccc2[nH]1` [Example 1-97, 5-fluoro-N-(2-fluorophenyl)-1H-indole-2-carboxamide] the value was “not active”; for `O=C(Cc1c[nH]c2ccccc12)Nc1ccc(Cl)c(Cl)c1` [Example 1-20, N-(3,4-dichlorophenyl)-2-(1H-indol-3-yl)acetamide], “not active”. For the compound `COc1ccc(NC(=O)Cc2c[nH]c3ccccc23)cc1OC` [Example 1-28, N-(3,4-dimethoxyphenyl)-2-(1H-indol-3-yl)acetamide], the “Remaining activity % at 10 μM” value was “not active”. The same measure, in the same setting: for `O=C(Cc1c[nH]c2ccccc12)NCc1ccc(F)cc1` [Example 1-37, N-(4-fluorobenzyl)-2-(1H-indol-3-yl)acetamide] the value was “not active”; for `O=C(Cc1c[nH]c2ccccc12)NNc1ccccc1Cl` [Example 1-51, N′-(2-chlorophenyl)-2-(1H-indol-3-yl)acetohydrazide], 82.82%. The same measure, in the same setting: for `O=C(Cc1c[nH]c2ccccc12)Nc1ccccc1F` [Example 1-12, N-(2-fluorophenyl)-2-(1H-indol-3-yl)acetamide] the value was “not active”; for `O=C(Cc1c[nH]c2ccccc12)NNc1ccc(Cl)cc1` [Example 1-53, N′-(4-chlorophenyl)-2-(1H-indol-3-yl)acetohydrazide], “not active”; for `O=C(Nc1cccc(F)c1)c1cc2cc(F)ccc2[nH]1` [Example 1-98, 5-fluoro-N-(3-fluorophenyl)-1H-indole-2-carboxamide], 76.66%.

As to `O=C(Cc1c[nH]c2ccccc12)OCc1ccc([N+](=O)[O-])cc1` [Example 1-115, 4-nitrobenzyl 2-(1H-indol-3-yl)acetate], the “Remaining activity % at 10 μM” value is reported as 55.24%. The same measure, in the same setting: under `Cc1cc(C)cc(NC(=O)c2cc3cc(F)ccc3[nH]2)c1` [Example 1-103, N-(3,5-dimethylphenyl)-5-fluoro-1H-indole-2-carboxamide] stands 75.43%. Regarding `O=C(Nc1ccc(O)c(O)c1)c1cc2ccccc2[nH]1` [Example 1-109, N-(3,4-dihydroxyphenyl)-1H-indole-2-carboxamide], the “Remaining activity % at 10 μM” value is on record as “not active”. For `O=C(Cc1c[nH]c2ccccc12)Nc1cc(F)cc(F)c1` [Example 1-18, N-(3,5-difluorophenyl)-2-(1H-indol-3-yl)acetamide], the “Remaining activity % at 10 μM” value was found to be 97.19%. The same measure, in the same setting: under `O=C(Cc1c[nH]c2ccccc12)NCc1cccc(Cl)c1Cl` [Example 1-47, N-(2,3-dichlorobenzyl)-2-(1H-indol-3-yl)acetamide] stands 62.96%; under `C#Cc1ccc(NC(=O)Cc2c[nH]c3ccccc23)cc1` [Example 1-31, N-(4-ethynylphenyl)-2-(1H-indol-3-yl)acetamide], “not active”; under `O=C(CCCc1c[nH]c2ccccc12)Nc1cccc(F)c1` [Example 1-74, N-(3-fluorophenyl)-4-(1H-indol-3-yl)butanamide], 72.65%.

On to `O=C(NCc1ccc(Cl)c(Cl)c1)c1c[nH]c2ccccc12` [Example 1-5, N-(3,4-dichlorobenzyl)-1H-indole-3-carboxamide], for which the “Remaining activity % at 10 μM” value turned out to be 89.34%.

Take `O=C(CCc1c[nH]c2ccccc12)Nc1ccc(O)c(O)c1` [Example 1-108, N-(3,4-dihydroxyphenyl)-3-(1H-indol-3-yl)propanamide]: the “Remaining activity % at 10 μM” value amounted to 76.29%. In the case of `Cn1c(C(=O)Nc2cc(C(F)(F)F)cc(C(F)(F)F)c2)cc2cc(F)c(F)cc21` [Example 1-114, N-(3,5-bis(trifluoromethyl)phenyl)-5,6-difluoro-1-methyl-1H-indole-2-carboxamide], the “Remaining activity % at 10 μM” value was 48.24%. Regarding `O=C(CCCc1c[nH]c2ccccc12)NCc1ccc(Cl)c(Cl)c1` [Example 1-82, N-(3,4-dichlorobenzyl)-4-(1H-indol-3-yl)butanamide], the “Remaining activity % at 10 μM” value amounted to 94.09%. As for `O=C(CCCc1c[nH]c2ccccc12)Nc1ccc(Cl)c([N+](=O)[O-])c1` [Example 1-78, N-(4-chloro-3-nitrophenyl)-4-(1H-indol-3-yl)butanamide], the “Remaining activity % at 10 μM” value is given as 42.24%. As to `O=C(Nc1cc(C(F)(F)F)cc(C(F)(F)F)c1)c1cc2ccccc2[nH]1` [Example 1-84, N-(3,5-bis(trifluoromethyl)phenyl)-1H-indole-2-carboxamide], the “Remaining activity % at 10 μM” value came to 26.01%.

Turning to `O=C(Nc1ccc(F)cc1)c1cc2ccccc2[nH]1` [Example 1-83, N-(4-fluorophenyl)-1H-indole-2-carboxamide], the “Remaining activity % at 10 μM” value is “not active”. The same measure, in the same setting: for `COC(=O)c1ccc(CNC(=O)CCCc2c[nH]c3ccccc23)cc1` [Example 1-80, methyl 4-((4-(1H-indol-3-yl)butanamido)methyl)benzoate] the value was 56.02%. On to `O=C(CCCc1c[nH]c2ccccc12)Nc1ccc(Br)cc1` [Example 1-76, N-(4-bromophenyl)-4-(1H-indol-3-yl)butanamide], for which the “Remaining activity % at 10 μM” value is 79.65%.

Consider `CCC(C)c1ccc(NC(=O)Cc2c[nH]c3ccccc23)cc1` (centres unmarked) [Example 1-34, N-(4-sec-butylphenyl)-2-(1H-indol-3-yl)acetamide], for which the “Remaining activity % at 10 μM” value is recorded as 66.07%. As to `O=C(Cc1c[nH]c2ccccc12)NCc1cccc(C(F)(F)F)c1` [Example 1-42, 2-(1H-indol-3-yl)-N-(3-(trifluoromethyl)benzyl)acetamide], the “Remaining activity % at 10 μM” value was 34.44%. Still for that read-out and setting: for `O=C(Cc1c[nH]c2ccccc12)NCc1ccc(O)c(O)c1` [Example 1-107, N-(3,4-dihydroxybenzyl)-2-(1H-indol-3-yl)acetamide] the value was 88.12%; for `O=C(Cc1c[nH]c2ccccc12)Nc1ccccc1O` [Example 1-7, N-(2-hydroxyphenyl)-2-(1H-indol-3-yl)acetamide], 65.03%; for `COc1ccc(CNC(=O)Cc2c[nH]c3ccccc23)cc1` [Example 1-39, 2-(1H-indol-3-yl)-N-(4-methoxybenzyl)acetamide], 91.57%. The same measure, in the same setting: for `O=C(CCc1c[nH]c2ccccc12)Nc1ccc(Br)cc1` [Example 1-65, N-(4-bromophenyl)-3-(1H-indol-3-yl)propanamide] the value was “not active”.

The experiment is the same for the next values; noted with them: compound 10 μM, cells without the compound = 100%, 10 µM.
As to `O=C(NNc1ccc(Cl)c(Cl)c1)c1cc2ccccc2[nH]1` [Example 1-6, N′-(3,4-dichlorophenyl)-1H-indole-2-carbohydrazide], the “Remaining activity % at 10 μM” value came to 86.59%.
